How the values were obtained:
HIV-1RF [1] = assay: XTT cytoprotection (cytopathicity) anti-HIV assay, CEM-SS cells; assay type: cell-based
Procedure: Initial anti-HIV screening was performed with CEM-SS cells and HIV-1RFusing the XTT cytoprotection assay as previously described (Weislow et al., J. National Cancer Inst. 81: 577-586, (1989)). HIV-1 isolates included common laboratory stains (RF, IIIB and MN), as well as a panel of HIV-1 clinical isolates (Cushman et al., J. Med. Chem. 37: 3040-3050, (1994)). The pyridone-resistant HIV-1A17 isolate (Nunberg et al., J. Virol., 65: 4887-4892 (1991)) was obtained from Emilio Emini at Merck Sharpe and Dohme Laboratories. Phytohemagglutinin-stimulated human peripheral blood lymphocytes (PBLs) and fresh monocyte-macrophage (Mono/MF) cultures were prepared and utilized in antiviral assays as previously described (Rice et al., Proc. Nat'l. Academy Science, USA 90: 9721-9724, (1993)); (Cushman et al., J. Med. Chem. 37: 3040-3050, (1994)). EC50 values for these cultures indicate the drug concentration that provided a 50% reduction in viral p24 production. […] The compounds can be synthesized according to the teachings of Singh et al., Sulfur Letters 8: 107-114, (1988). […] MT-2, MT-4, U1, HeLa-CD4-LTR-β-gal and 174xCEM cells were obtained from the AIDS Research and Reference Program (National Institute of Allergy and Infectious Disease, National Institutes of Health, Bethesda, Md. USA), as were the HIV-2MS and the AZT-resistant HIV-1G910-6 isolates.
Racemate and enantiomers of the cis-1,1-dioxo[1,2]dithiane-4,5-diol were synthesized and evaluated for antiviral activity in the XTT assay as described hereinabove.

HIV-1 Calo-139 = assay: XTT cytopathicity assay, drug resistant HIV-1; assay type: cell-based; conditions: MT-2, Calo-139
Procedure: (§1) Initial anti-HIV screening was performed with CEM-SS cells and HIV-1RFusing the XTT cytoprotection assay as previously described (Weislow et al., J. National Cancer Inst. 81: 577-586, (1989)). HIV-1 isolates included common laboratory stains (RF, IIIB and MN), as well as a panel of HIV-1 clinical isolates (Cushman et al., J. Med. Chem. 37: 3040-3050, (1994)). The pyridone-resistant HIV-1A17 isolate (Nunberg et al., J. Virol., 65: 4887-4892 (1991)) was obtained from Emilio Emini at Merck Sharpe and Dohme Laboratories. Phytohemagglutinin-stimulated human peripheral blood lymphocytes (PBLs) and fresh monocyte-macrophage (Mono/MF) cultures were prepared and utilized in antiviral assays as previously described (Rice et al., Proc. Nat'l. Academy Science, USA 90: 9721-9724, (1993)); (Cushman et al., J. Med. Chem. 37: 3040-3050, (1994)). EC50 values for these cultures indicate the drug concentration that provided a 50% reduction in viral p24 production. […] The compounds can be synthesized according to the teachings of Singh et al., Sulfur Letters 8: 107-114, (1988). The 4,5-cis-dihydroxy(1,1-dioxy-1,2,-dithiohexane) compound (NSC 624151) has been abbreviated as 624151 for convenience. MT-2, MT-4, U1, HeLa-CD4-LTR-β-gal and 174xCEM cells were obtained from the AIDS Research and Reference Program (National Institute of Allergy and Infectious Disease, National Institutes of Health, Bethesda, Md. USA), as were the HIV-2MS and the AZT-resistant HIV-1G910-6 isolates.
(§2) ^a Anti-HIV studies utilizing lymphocytederived cell lines were
(§3) performed using the XTT cytopathicity assay, while antiviral assays

HIV-1 DPS-181 = assay: XTT cytopathicity assay, drug resistant HIV-1; assay type: cell-based; conditions: MT-2, DPS-181
Procedure: as §1, §2, §3

HIV-1 E-BPTU-181 = assay: XTT cytopathicity assay, drug resistant HIV-1; assay type: cell-based; conditions: MT-2, E-BPTU-181
Procedure: as §1, §2, §3

HIV-1 HEPT-236 = assay: XTT cytopathicity assay, drug resistant HIV-1; assay type: cell-based; conditions: MT-2, HEPT-236
Procedure: as §1, §2, §3

HIV-1 OC-100 = assay: XTT cytopathicity assay, drug resistant HIV-1; assay type: cell-based; conditions: MT-2, OC-100
Procedure: as §1, §2, §3

HIV-1 TIBO-98/100 = assay: XTT cytopathicity assay, drug resistant HIV-1; assay type: cell-based; conditions: MT-2, TIBO-98/100
Procedure: as §1, §2, §3

HIV-1 Thiazol-108 = assay: XTT cytopathicity assay, drug resistant HIV-1; assay type: cell-based; conditions: MT-2, Thiazol-108
Procedure: as §1, §2, §3

HIV-1 UC38-181 = assay: XTT cytopathicity assay, drug resistant HIV-1; assay type: cell-based; conditions: MT-2, UC38-181
Procedure: as §1, §2, §3

HIV-1RF [2] = assay: effect of increasing multiplicity of infection, CEM-SS cells; assay type: cell-based; conditions: for EC50: Human immunodeficiency virus 1, CEM-SS
Procedure: as §1

gp120-CD4 = target: T1, gp120-CD4 (UniProt P01730+P03375); assay: gp120-CD4 binding, antigen capture ELISA; design: species or system HIV-1
T1 construct: purchased
Procedure: Binding of HIV-1RF to PBLs was measured by a p24-based assay (Rice, et al., Proc. Nat'l. Academy of Science USA 90: 9721-9724, (1993)). Briefly, 5×10^5 PBLs were incubated with a concentrated stock of virus for 30 min. at 37° C. in the absence or presence of various concentrations of 624151, the unbound virus was washed away, and the cell-associated virus was solubilized in 1% Triton X-100, 1% BSA and analyzed by the p24 antigen capture assay as previously described. The binding of gp120to CD4 was analyzed using an antigen capture ELISA. All steps of the assay were carried out according to the manufacturer's protocols.
^.dagger. Attachment of HIV1 to fresh human PBLs, binding of gp120 to
CD4, and the effects of compounds on HIV1 RT and protease were quantitate

HIV-1 protease = target: T2, HIV-1 protease (Human immunodeficiency virus type 1 group M subtype B, UniProt P04585); assay: processing of purified recombinant Pr55^gag by purified HIV-1 protease; assay type: biochemical; conditions: data not shown, in words
T2 construct: the purified HIV-1 protease and integrase enzymes

SMILES: O=S1(=O)C[C@H](O)[C@H](O)CS1 (relative stereo) [NSC 624151, cis-1,1-dioxo[1,2]dithiane-4,5-diol]
- EC50 (HIV-1RF [1]; Human immunodeficiency virus 1, CEM-SS, CEM-SS cells, HIV-1RF, read-out: XTT Assay EC50): 6.6 µM
- EC50 (HIV-1RF [1]; Human immunodeficiency virus 1, CEM-SS, CEM-SS, RF, Table 2, read-out: EC50): 6.6 µM
- EC50 (HIV-1RF [1]; Human immunodeficiency virus 1, CEM-SS, Table 5, read-out: EC50 Duplicates): 9.53 µM
- EC50 (HIV-1RF [1]; Human immunodeficiency virus 1, CEM-SS, Table 5, read-out: EC50 Mean): 12.2 µM
- EC50 (HIV-1RF [1]; Human immunodeficiency virus 1, CEM-SS, XTT cytopathicity assay, Table 4, read-out: Infection EC50 (Mean ± S.D., n = 6)): 7.85 ± 5.5 µM
- EC50 (HIV-1RF [1]; Table 5, read-out: EC50 Duplicates): 14.9 µM
- EC50 relative to enantiomer or racemate (HIV-1RF [1]; in words): the average of these EC50 s is equivalent to the EC50 for the racemic mixture
- EC50 (HIV-1 Calo-139): 15 µM
- EC50 (HIV-1 DPS-181): 16.5 µM
- EC50 (HIV-1 E-BPTU-181): 17 µM
- EC50 (HIV-1 HEPT-236): 16 µM
- EC50 (HIV-1 OC-100): 12.7 µM
- EC50 (HIV-1 TIBO-98/100): 16 µM
- EC50 (HIV-1 Thiazol-108): 17 µM
- EC50 (HIV-1 UC38-181): 17 µM
- EC50 (HIV-1RF [2]; MOI 0.01): 8.4 µM
- EC50 (HIV-1RF [2]; MOI 0.02): 17.1 µM
- EC50 (HIV-1RF [2]; MOI 0.04): 16.8 µM
- EC50 (HIV-1RF [2]; MOI 0.08): 27.7 µM
- EC50 (HIV-1RF [2]; MOI 0.16): 21.3 µM
- EC50 (HIV-1RF [2]; MOI 0.32): 21 µM
- effect of increasing the MOI on activity (HIV-1RF [2]; in words): relatively resistant to the effects of increasing the viral MOI
- inhibition of gp120-CD4 interaction (gp120-CD4; in words): did not inhibit
- IC50 (gp120-CD4; read-out: gp120-CD4 ID50): > 100 µM
- inhibition of purified HIV-1 protease processing of recombinant Pr55^gag (HIV-1 protease): not to inhibit purified HIV-1 protease

— patent publication US6046228A, “Anti-viral pharmaceutical compositions containing saturated 1,2-dithiaheterocyclic compounds and uses thereof” (priority 1999, dated 2000)
